Results as given in ChEMBL document CHEMBL1201862, “PubChem BioAssay data set” (2004).
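How tested: cells in 96-well plates exposed to compound for 48 hours at five concentrations. Abbreviation: GI50, concentration required for 50% inhibition of growth.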 Calls of active or inactive are those of the source. No stated cut-off is given here; in the data, active = GI50 up to about 1.1 µM and inactive = higher. *1 amine or outer side, *2 acyl side, *3 side chain or, on linkers, in order; H or OH if unused. Where a SMILES comes first, the peptide text is derived from it. [ ]: non-standard residue; d: D form. The star is where a group is joined. ξ: configuration not given here. X43 = CCC(=O)CC(O)CC(C)CC(N[*:1])C(=O)[*:2]; ξLeu(3ξ-OH) = CC(C)C(O)C(N)C(=O)O; ξPro(4ξ-Me) = CC1CNC(C(=O)O)C1; X42 = CCC(C)/C=C/C(=O)*; Aib = CC(C)(N)C(=O)O; X44 = CC(CN(C)C)N*; βAla = NCCC(=O)O

Tests used:
Experiment in all cases: growth of human tumour cells (NCI), 48 h
HOP-62 = test system: HOP-62
CAKI-1 = test system: CAKI-1
LOX IMVI = test system: LOX IMVI
KM12 = test system: KM12
IGROV-1 = test system: IGROV-1
HT-29 = test system: HT-29
RXF 393 = test system: RXF 393
SR = test system: SR
HCT-116 = test system: HCT-116
MOLT-4 = test system: MOLT-4
HCT-15 = test system: HCT-15
Hs-578T = test system: Hs-578T
COLO 205 = test system: COLO 205
SK-MEL-2 = test system: SK-MEL-2
A549 = test system: A549
OVCAR-8 = test system: OVCAR-8
UACC-62 = test system: UACC-62
Malme-3M = test system: Malme-3M
HOP-92 = test system: HOP-92
HL-60 = test system: HL-60

SMILES	GI50 (HOP-62)	GI50 (CAKI-1)	GI50 (LOX IMVI)	GI50 (KM12)	GI50 (IGROV-1)	GI50 (HT-29)	GI50 (RXF 393)	GI50 (SR)	GI50 (HCT-116)	GI50 (MOLT-4)	GI50 (HCT-15) [µM]	GI50 (Hs-578T)	GI50 (COLO 205)	GI50 (SK-MEL-2)	GI50 (A549)	GI50 (OVCAR-8)	GI50 (UACC-62)	GI50 (Malme-3M)	GI50 (HOP-92)	GI50 (HL-60)
CC(C)Cc1c(C#N)c(C#N)c(N)n1Cc1ccccc1	> 100 µM (inactive)	> 100 µM (inactive)	> 100 µM (inactive)	> 100 µM (inactive)	> 100 µM (inactive)	> 100 µM (inactive)	> 100 µM (inactive)	> 100 µM (inactive)	> 100 µM (inactive)	> 100 µM (inactive)	> 100	> 100 µM (inactive)	> 100 µM (inactive)	> 100 µM (inactive)	> 100 µM (inactive)	> 100 µM (inactive)	55.5 µM (inactive)	> 100 µM (inactive)	> 100 µM (inactive)	> 100 µM (inactive)
C[N+]1(C(CO)Cc2c[nH]c3ccccc23)Cc2ccccc2C1 (stereo not given)	> 100 µM (inactive)	> 100 µM (inactive)	> 100 µM (inactive)	> 100 µM (inactive)	> 100 µM (inactive)	92.3 µM (inactive)	> 100 µM (inactive)	> 100 µM (inactive)	> 100 µM (inactive)	> 100 µM (inactive)	> 100	> 100 µM (inactive)	> 100 µM (inactive)	> 100 µM (inactive)	59.4 µM (inactive)	> 100 µM (inactive)	> 100 µM (inactive)	13.7 µM (inactive)	92.5 µM (inactive)	> 100 µM (inactive)
CSc1nc2cc(S(=O)(=O)N3CCCCC3)ccc2s1	57 µM (inactive)	> 100 µM (inactive)	> 100 µM (inactive)	> 100 µM (inactive)	> 100 µM (inactive)	> 100 µM (inactive)	> 100 µM (inactive)	> 100 µM (inactive)	> 100 µM (inactive)	> 100 µM (inactive)	> 100	> 100 µM (inactive)	> 100 µM (inactive)	> 100 µM (inactive)	> 100 µM (inactive)	> 100 µM (inactive)	> 100 µM (inactive)	> 100 µM (inactive)	> 100 µM (inactive)	> 100 µM (inactive)
CCOC(=O)C1(C#N)C(C#N)(C#N)C1(C#N)C#N	> 100 µM (inactive)	> 100 µM (inactive)	> 100 µM (inactive)	> 100 µM (inactive)	> 100 µM (inactive)	> 100 µM (inactive)	> 100 µM (inactive)	88.5 µM (inactive)	> 100 µM (inactive)	> 100 µM (inactive)	> 100	> 100 µM (inactive)	> 100 µM (inactive)	> 100 µM (inactive)	> 100 µM (inactive)	> 100 µM (inactive)	> 100 µM (inactive)	> 100 µM (inactive)	> 100 µM (inactive)	> 100 µM (inactive)
S=C1NCCN1C(=S)Nc1ccccc1	> 100 µM (inactive)	46.8 µM (inactive)	> 100 µM (inactive)	49.9 µM (inactive)	> 100 µM (inactive)	> 100 µM (inactive)	10.5 µM (inactive)	42.4 µM (inactive)	91.2 µM (inactive)	34.8 µM (inactive)	68.9	84.1 µM (inactive)	71.6 µM (inactive)	> 100 µM (inactive)	44.1 µM (inactive)	> 100 µM (inactive)	96.8 µM (inactive)	> 100 µM (inactive)	66.8 µM (inactive)	> 100 µM (inactive)
CCC(=O)CC(O)CC(C)CC(NC(=O)C1CC(C)CN1C(=O)/C=C/C(C)CC)C(=O)NC(C(=O)NC(C)(C)C(=O)NC(CC(C)C)C(=O)NC(CC(C)C)C(=O)NC(C)(C)C(=O)NC(C)(C)C(=O)NCCC(=O)NC(C)CN(C)C)C(O)C(C)C (stereo not given) (X42-[ξPro(4ξ-Me)][X43][ξLeu(3ξ-OH)][Aib]LL[Aib][Aib][βAla]-X44; configuration not given here)	0.151 µM (active)	1.19 µM (inactive)	0.199 µM (active)	0.0412 µM (active)	0.0746 µM (active)	0.0728 µM (active)	0.38 µM (active)	0.028 µM (active)	0.0235 µM (active)	0.00887 µM (active)	5.4	0.0132 µM (active)	0.0131 µM (active)	0.12 µM (active)	< 0.005 µM (active)	< 0.005 µM (active)	0.268 µM (active)	0.133 µM (active)	0.0887 µM (active)	0.00951 µM (active)
O=C(NN=C1NCCCCN1)Nc1ccc(Cl)cc1	> 100 µM (inactive)	> 100 µM (inactive)	> 100 µM (inactive)	> 100 µM (inactive)	> 100 µM (inactive)	> 100 µM (inactive)	> 100 µM (inactive)	22.8 µM (inactive)	> 100 µM (inactive)	23.9 µM (inactive)	> 100	> 100 µM (inactive)	> 100 µM (inactive)	> 100 µM (inactive)	> 100 µM (inactive)	> 100 µM (inactive)	> 100 µM (inactive)	> 100 µM (inactive)	> 100 µM (inactive)	26.5 µM (inactive)
Cc1nc(Nc2ccc(Cl)cc2Cl)sc1C(=O)Nc1ccccc1	81.1 µM (inactive)	49.8 µM (inactive)	23.4 µM (inactive)	35.8 µM (inactive)	63.4 µM (inactive)	35.3 µM (inactive)	33.3 µM (inactive)	28.2 µM (inactive)	35.1 µM (inactive)	10.9 µM (inactive)	74.1	47 µM (inactive)	26.2 µM (inactive)	39.8 µM (inactive)	36.6 µM (inactive)	> 100 µM (inactive)	82.6 µM (inactive)	> 100 µM (inactive)	31.3 µM (inactive)	> 10 µM (inactive)
C[C@]12CC[C@H]3[C@@H](CCC4=C(Br)C(=O)C=C[C@@]43O)[C@@H]1CCC2=O	50 µM (inactive)	31.6 µM (inactive)	32.3 µM (inactive)	34.2 µM (inactive)	36 µM (inactive)	36 µM (inactive)	21.1 µM (inactive)	8.34 µM (inactive)	26.4 µM (inactive)	25.2 µM (inactive)	15.6	62.8 µM (inactive)	61 µM (inactive)	40.9 µM (inactive)	59.7 µM (inactive)	25.8 µM (inactive)	32.4 µM (inactive)	93.5 µM (inactive)	32.2 µM (inactive)	21.2 µM (inactive)
CC(=O)OCC12C(=O)C[C@@H](C)C3(CC(c4ccoc4)OC3=O)C1CCC(OC(C)=O)C21CO1 (stereo not given in full)	> 100 µM (inactive)	> 100 µM (inactive)	> 100 µM (inactive)	> 100 µM (inactive)	> 100 µM (inactive)	> 100 µM (inactive)	87.3 µM (inactive)	> 100 µM (inactive)	> 100 µM (inactive)	> 100 µM (inactive)	> 100	> 100 µM (inactive)	> 100 µM (inactive)	> 100 µM (inactive)	> 100 µM (inactive)	> 100 µM (inactive)	> 100 µM (inactive)	> 100 µM (inactive)	> 100 µM (inactive)	> 100 µM (inactive)
